# In ChEMBL document CHEMBL5113483, “Design and synthesis of NAD(P)H: Quinone oxidoreductase (NQO1)-activated prodrugs of 23-hydroxybetulinic acid with enhanced antitumor properties” (Eur J Med Chem, 2022):
# How the values were obtained:
# HT-29 [1] = experiment: Induction of cell cycle arrest in human HT-29 cells assessed as accumulation of cells at G1 phase at 2 uM incubated for 48 hrs by RNaeA/propidium iodide based flow cytometry analysis (reference value: 62.98 %); type: functional
# HT-29 [2] = experiment: Induction of cell cycle arrest in human HT-29 cells assessed as accumulation of cells at S phase at 2 uM incubated for 48 hrs by RNaeA/propidium iodide based flow cytometry analysis (reference value: 23.06 %); type: functional
# HT-29 [3] = experiment: Induction of mitochondrial membrane potential loss in human HT-29 cells assessed as healthy cells at 2 uM incubated for 48 hrs by JC-1 staining based flow cytometry analysis (reference value: 93.4 %); type: functional
# HT-29 [4] = experiment: Induction of apoptosis in human HT-29 cells assessed as dead cells at 1 uM incubated for 48 hrs by Annexin V-FITC/PI staining based flow cytometry analysis (Rvb= 0.01%); type: functional
# HT-29 [5] = experiment: Antitumor activity against human HT-29 cells overexpressing NQO-1 xenografted in ICR mouse assessed as reduction in tumor weight at 30 mg/kg, ip administered every day for 21 days and measured every 2 days relative to control; type: functional; set-up: scale not given: the % may be the effect or the level left; conditions: time 21 day
# [6] = Stability of compound in TRIS buffer at pH 7.4 assessed as compound remaining measured after 60 hrs by HPLC analysis; type: physicochemical; conditions: read-out: Stability
# HT-29 [7] = experiment: Induction of mitochondrial membrane potential loss in human HT-29 cells assessed as JC-1 monomer formation by measuring increase in green intensity at 4 uM incubated for 48 hrs by JC-1 staining based flow cytometry analysis (reference value: 6.54 %); type: functional
# HT-29 [8] = experiment: Induction of apoptosis in human HT-29 cells assessed as upregulation of Bax protein expression incubated for 48 hrs by Western blot analysis; type: functional, cell-based; conditions: dose 1-4 µM, DDE = dose-dependent effect
# HT-29 [9] = experiment: Induction of cell cycle arrest in human HT-29 cells assessed as accumulation of cells at G1 phase at 4 uM incubated for 48 hrs by RNaeA/propidium iodide based flow cytometry analysis (reference value: 62.98 %); type: functional
# A549 = experiment: Antiproliferative activity against human A549 cells overexpressing NQO1 assessed as inhibition of cell growth incubated for 72 hrs by MTT assay; type: functional, cell-based; conditions: A549, 72 h
# [10] = Selectivity index, ratio of IC50 for antiproliferative activity against NQO1-deficient human NCI-H596 cells to IC50 for antiproliferative activity against human HT-29 cells overexpressing NQO1; type: functional
# HT-29 [11] = experiment: Induction of apoptosis in human HT-29 cells assessed as early apoptotic cells at 4 uM incubated for 48 hrs by Annexin V-FITC/PI staining based flow cytometry analysis (Rvb= 2.41%); type: functional
# HT-29 [12] = experiment: Induction of mitochondrial membrane potential loss in human HT-29 cells assessed as JC-1 monomer formation by measuring increase in green intensity at 2 uM incubated for 48 hrs by JC-1 staining based flow cytometry analysis (reference value: 6.54 %); type: functional
# HT-29 [13] = experiment: Induction of apoptosis in human HT-29 cells assessed as late apoptotic cells at 1 uM incubated for 48 hrs by Annexin V-FITC/PI staining based flow cytometry analysis (Rvb= 1.04%); type: functional
# [14] = target: NAD(P)H dehydrogenase [quinone] 1 (Homo sapiens) (UniProt P15559); experiment: Substrate activity at lyophilized human NQO1 assessed as compound decomposition measured after 60 hrs by HPLC analysis
# [15] = Selectivity index, ratio of IC50 for cytotoxicity against human HFL1 cells to IC50 for antiproliferative activity against human HT-29 cells overexpressing NQO1; type: toxicity, cell-based; conditions: HFL1 cells versus HT-29 cells overexpressing NQO1, read-out: Ratio IC50
# HT-29 [16] = experiment: Induction of apoptosis in human HT-29 cells assessed as dead cells at 2 uM incubated for 48 hrs by Annexin V-FITC/PI staining based flow cytometry analysis (Rvb= 0.01%); type: functional
# HT-29 [17] = experiment: Induction of cell cycle arrest in human HT-29 cells assessed as accumulation of cells at G2 phase at 2 uM incubated for 48 hrs by RNaeA/propidium iodide based flow cytometry analysis (reference value: 13.96 %); type: functional
# [18] = target: NAD(P)H dehydrogenase [quinone] 1 (Homo sapiens) (UniProt P15559); experiment: Substrate activity at lyophilized human NQO1 assessed as compound decomposition measured after 6 hrs by HPLC analysis
# HT-29 [19] = experiment: Induction of apoptosis in human HT-29 cells assessed as downregulation of Bcl-xl protein expression incubated for 48 hrs by Western blot analysis; type: functional, cell-based; conditions: dose 1-4 µM, DDE = dose-dependent effect
# HT-29 [20] = experiment: Induction of apoptosis in human HT-29 cells assessed as early apoptotic cells at 2 uM incubated for 48 hrs by Annexin V-FITC/PI staining based flow cytometry analysis (Rvb= 2.41%); type: functional
# HT-29 [21] = experiment: Induction of apoptosis in human HT-29 cells assessed as viable cells at 4 uM incubated for 48 hrs by Annexin V-FITC/PI staining based flow cytometry analysis (Rvb= 96.54%); type: functional; conditions: read-out: Activity
# [22] = Cytotoxicity against human HFL1 cells assessed as inhibition of cell growth incubated for 72 hrs by MTT assay; type: toxicity, cell-based
# [23] = Selectivity index, ratio of IC50 for antiproliferative activity against human HT-29 cells overexpressing NQO1 in presence of dicoumarol to antiproliferative activity against human HT-29 cells overexpressing NQO1; type: functional
# HT-29 [24] = experiment: Induction of cell cycle arrest in human HT-29 cells assessed as accumulation of cells at G2 phase at 1 uM incubated for 48 hrs by RNaeA/propidium iodide based flow cytometry analysis (reference value: 13.96 %); type: functional
# HT-29 [25] = experiment: Induction of cell cycle arrest in human HT-29 cells assessed as accumulation of cells at G2 phase at 4 uM incubated for 48 hrs by RNaeA/propidium iodide based flow cytometry analysis (reference value: 13.96 %); type: functional
# [26] = Toxicity in […] xenografted with human HT-29 cells overexpressing NQO-1 assessed as reduction in body weight at 30 mg/kg, ip administered for 21 days and measured every 2 days; type: organism-based; conditions: in vivo, 504 h, time 21 day
# HT-29 [27] = experiment: Induction of mitochondrial membrane potential loss in human HT-29 cells assessed as healthy cells at 1 uM incubated for 48 hrs by JC-1 staining based flow cytometry analysis (reference value: 93.4 %); type: functional
# HT-29 [28] = experiment: Induction of cell cycle arrest in human HT-29 cells assessed as accumulation of cells at G1 phase at 1 uM incubated for 48 hrs by RNaeA/propidium iodide based flow cytometry analysis (reference value: 62.98 %); type: functional
# HT-29 [29] = experiment: Induction of apoptosis in human HT-29 cells assessed as upregulation of caspase-3 protein expression incubated for 48 hrs by Western blot analysis; type: functional, cell-based; conditions: dose 1-4 µM, DDE = dose-dependent effect
# HT-29 [30] = experiment: Induction of apoptosis in human HT-29 cells assessed as late apoptotic cells at 2 uM incubated for 48 hrs by Annexin V-FITC/PI staining based flow cytometry analysis (Rvb= 1.04%); type: functional
# HT-29 [31] = experiment: Induction of apoptosis in human HT-29 cells assessed as early apoptotic cells at 1 uM incubated for 48 hrs by Annexin V-FITC/PI staining based flow cytometry analysis (Rvb= 2.41%); type: functional
# HT-29 [32] = experiment: Antiproliferative activity against human HT-29 cells overexpressing NQO1 assessed as inhibition of cell growth preincubated with NQO1 inhibitor, dicoumarol for 30 mins followed by compound addition and measured after 72 hrs by MTT assay; type: functional, cell-based
# NAD(P)H dehydrogenase [quinone] 1 (Homo sapiens), sequence (P15559 whole entry): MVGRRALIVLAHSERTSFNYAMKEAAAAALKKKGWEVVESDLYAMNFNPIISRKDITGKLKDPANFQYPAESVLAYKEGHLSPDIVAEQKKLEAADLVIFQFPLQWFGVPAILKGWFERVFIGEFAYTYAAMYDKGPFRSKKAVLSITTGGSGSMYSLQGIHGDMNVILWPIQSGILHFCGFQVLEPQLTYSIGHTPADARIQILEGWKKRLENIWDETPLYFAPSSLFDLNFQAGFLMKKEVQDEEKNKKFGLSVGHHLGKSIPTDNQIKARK
compound,measurement,setting,value
C=C(C)[C@@H]1CC[C@]2(C(=O)OCCOC(=O)CCC(=O)OCc3cn(C)c4c3C(=O)C(OC)=CC4=O)CC[C@]3(C)[C@H](CC[C@@H]4[C@@]5(C)CC[C@H](O)[C@@](C)(CO)[C@@H]5CC[C@]43C)[C@@H]12,Activity,HT-29 [1],52.73%
same,Activity,HT-29 [2],22.1%
same,Activity,HT-29 [3],66.47%
same,Activity,HT-29 [4],2.16%
same,Activity,HT-29 [5],72.69%
same,remaining at 60 h,[6],80%
same,Activity,HT-29 [7],44.48%
same,Activity,HT-29 [8],Dde
same,Activity,HT-29 [9],39.61%
same,IC50,A549,2.36 µM
same,Ratio IC50,[10],3.44
same,Activity,HT-29 [11],32.28%
same,Activity,HT-29 [12],33.41%
same,Activity,HT-29 [13],9.81%
same,Activity,[14],100%
same,selectivity ratio,[15],4.16
same,Activity,HT-29 [16],5.03%
same,Activity,HT-29 [17],25.17%
same,Activity,[18],50%
same,Activity,HT-29 [19],Dde
same,Activity,HT-29 [20],22.49%
same,viability at 4 µM,HT-29 [21],38.4%
same,IC50 at 72 h,[22],6.45 µM
same,Ratio IC50,[23],4.9
same,Activity,HT-29 [24],20.54%
same,Activity,HT-29 [25],32.73%
same,Activity,[26],Non-Toxic
same,Activity,HT-29 [27],79.07%
same,Activity,HT-29 [28],56.44%
same,Activity,HT-29 [29],Dde
same,Activity,HT-29 [30],16.77%
same,Activity,HT-29 [31],12.54%
same,IC50,HT-29 [32],9.22 µM
